Results taken from patent US20070072830A1, “Methods for treating diabetes” (Point Therapeutics, Inc., priority 2004, published 2007).
Where two headings read alike, the source gives them in different places. Values belong to the compound of their own block, whether it stands above or below them.

Legend:
[1] = biological target: T1, soluble recombinant human DPP-IV (Homo sapiens, UniProt P27487); assay: In vitro inhibition of recombinant soluble DPP-IV by amino boronic dipeptides; format: biochemical; settings: assayed at 3 minutes, 78 minutes and 16 hours after addition of Ala-Pro-AFC
T1 construct: immunoglobulin kappa light chain secretion signal (pSecTag2-B) (N, cleaved yes); made in house; host or cells: 293T cells, transient transfection; culture supernatant used unpurified
Description: Production of soluble recombinant human DPP-IV. Based on information on the N-terminus of serum DPP-IV (15), a truncated DPP-IV was engineered in which a signal/leader sequence was joined to the residue in DPP-IV corresponding to the N-terminus of serum DPP-IV to allow secretion. The cDNA encoding the desired truncated human DPP-IV dimer enzyme was engineered into the mammalian secretion vector pSecTag2 (Cat# V900-20, InVitrogen Corporation). The vector, available in A, B or C versions, representing three possible phases for gene fusion, contained an immunoglobulin-kappa light chain secretion signal followed by a selection of restriction sites for gene insertion. The fusion required engineering a restriction site upstream of the chosen fusion amino acid in the 5′ end of the DPP-IV dimer enzyme nucleic acid in phase with the chosen restriction site (Sfi I) in the vector secretion sequence. The chosen fusion amino acid in the 5′ end of the DPP-IV (Ser39) was 3′ of the trans-membrane anchoring domain. The pSecTag2 version B and its Sfi I restriction site was chosen for the fusion because it minimizes the additional N-terminal, vector-encoded residues in the mature secreted protein.
Construction of the fusion was as follows. First, total RNA was isolated from the Caco-2 colorectal carcinoma cell line (ATCC HTB-37) by standard Trizol/phenol /chloroform methodology. The purified RNA (approx. 2.5 μg in a 20 μl reaction) was used to make cDNA using oligo-dT primer and a commercial reverse transcription (RT) kit (InVitrogen). […] The following thermal cycler program was used: 94° C. for 45 sec. initial denaturation, then 30 cycles of 94° C., 10 sec.; 48° C., 6 sec.; 60° C., 4 min; followed by 5-min. extension at 72° C. after cycling.
DNA from the plasmid encoding DPP-IV dimer enzyme was prepared on an approximately 400 μg scale from overnight 30 ml cultures in Luria broth with 100 μg ampicillin per ml using a commercial kit (Qiagen Maxiprep Kit).
In vitro assay of enzymatic activity of recombinant soluble DPP-IV and inhibition by amino boronic dipeptides. The assay reaction mixture consisted of 135 μl 50 mM HEPES/Na buffer pH 7.6, 140 mM NaCl, 10-15 μl enzyme-containing culture supernatant, dipeptide substrate Ala-Pro-(7-amino-4-trifluoromethyl coumarin) (Ala-Pro-AFC; Enzyme System Products, Dublin, Calif.) at typically 0.1-1 mM added from a 100 or 400 mM stock in dimethyl formamide. The reaction mixture was incubated at room temperature, and production of the fluorescent AFC product was measured in a fluorometer (excitation, 400 nm; emission 505 nm), either by continuous monitoring or after termination with a one to one-tenth volume of 1-M sodium acetate, pH 4.5. Fluorometric reading were made with a […] Spectra Max GeminiXS capable of reading 96-well microtiter plates. The inhibitory activity of amino boronic dipeptides was investigated by preincubation of assay reaction mixtures with varying concentrations of each compound for 10 minutes before the addition of the substrate Ala-Pro-AFC.

Lewis rats = system: Lewis rats
Description: (§1) Serum DPP-IV inhibition and observation of acute toxicity of amino boronic dipeptides in Lewis rats. […] After observations were completed or at the onset of a moribund state, humane euthanasia was performed by asphyxiation in 100% CO2.

[2] = system: human bone marrow stromal cells; assay: G-CSF supernatant levels in human bone marrow stromal cell cultures; format: cell-based; settings: 1 to 10^4 nM, 24 hours in vitro
Description: Human bone marrow stromal cell cultures. Samples of normal human bone marrow were purchased from Cambrex Bioproducts (Walkersville, Md.) and mononuclear cells were purified over Ficoll-Hypaque (Nycomed, Oslo, Norway). Human stromal layers were established by seeding 4×10^7 mononuclear cells into T75 flasks (Coming) containing 20 ml MyeloCult medium (Stem Cell Technologies, Vancouver, BC) supplemented with 10^−6 M hydrocortisone (Sigma) and incubation at 37° C. in 100% humidified 5% CO2 in air. After one week, half the medium was exchanged, and the cultures incubated for approximately one week more, after which time, a semi-confluent cell layer was formed. Stromal cells were harvested by trypsinization using standard technique and 10^5 cells/well were seeded in multi-well plates in 1 ml of fully supplemented DMEM (InVitrogen, Carlsbad, Calif.). […] Multiwell cultures without the addition of amino boronic dipeptides served as controls. […] Supernatant concentrations of human G-CSF were determined by Quantikine enzyme-linked immunosorbent assay (ELISA; R&D Systems, Minneapolis, Minn.) according to the manufacturer's instructions. […] The effect of each amino boronic dipeptide on the level of supernatant G-CSF was determined by calculating a stimulation index (SI): SI=(mean G-CSF concentration in culture with amino boronic dipeptide)/(mean G-CSF concentration in control culture).

serum KC/CXCL1 = assay: Serum KC/CXCL1 levels in vivo in BALB/c mice; settings: 0.2-200 μg/mouse oral, 2 hours
Description: (§2) Assay ofserum DPP-IV inhibition and KC/CXCL1 levels in vivo. […] Each mouse received a single administration of each amino boronic dipeptide or saline, and blood samples were withdrawn from mice 2 hours later.
Serum concentration of mouse KC/CXCL1 was determined by Quantikine enzyme-linked immunosorbent assay (ELISA; R&D Systems, Minneapolis, Minn.) according to the manufacturer's instructions. ELISA was performed in duplicate for each sample.

serum DPP-IV [3] = biological target: T2, serum DPP-IV (Rattus norvegicus, UniProt P14740); assay: Serum DPP-IV inhibition in Lewis rats; format: in vivo; settings: single oral administration, 2 hours
T2 construct: from tissue; host or cells: serum of Lewis rats dosed in vivo
Description: (§3) Assay of serum DPP-IV inhibition in vivo.
as §1

serum DPP-IV [4] = biological target: T3, serum DPP-IV (Mus musculus, UniProt P28843); assay: Serum DPP-IV inhibition in vivo in BALB/c mice after oral gavage; settings: 2 hours
T3 construct: from tissue; host or cells: serum of BALB/c mice dosed orally
Description: as §3, §2
Serum DPP-IV activity was determined by reaction of a 10 μl volume of serum with 0.1 mM Ala-Pro-AFC (Enzyme System Products, Dublin, Calif.) in a 100 μl volume of 50 mM HEPES/Na buffer pH 7.6, 140 mM NaCl. […] Serum DPP-IV activity was expressed as fluorescent units (FU).

ob/ob mice = assay: Mouse oral glucose tolerance test (OGTT); format: in vivo
Description: Protocol for mouse oral glucose tolerance test (OGTT). The day of oral-glucose challenge was defined as day 0. […] Agents were administered by oral gavage. Mice were restricted to a diet of 50% of their individual calculated food intake from day −1 onwards. On day 0, blood glucose was measured at t−15 min. immediately followed by drug administration. At time point 0, glucose was administered by oral gavage (1 g/kg), and blood glucose was measured at time points 0, 30, 60, 120 and 240 minutes. Means±SE were calculated from the data of individual mice in drug-treatment groups 1 and 2.

Zucker fa/fa rats = assay: Rat oral glucose tolerance test (OGTT): glucose, insulin, GLP-1; format: in vivo; settings: 10 μmol/kg oral
Description: Protocol for rat oral glucose tolerance test (OGTT). […] On days −11 to −8, rats were fitted with intra-arterial catheters under light isoflurane anesthesia. […] From 12:00 a.m.

[5] = Lewis rats, single dose, observed 5 days

T1 sequence (P27487 39-766): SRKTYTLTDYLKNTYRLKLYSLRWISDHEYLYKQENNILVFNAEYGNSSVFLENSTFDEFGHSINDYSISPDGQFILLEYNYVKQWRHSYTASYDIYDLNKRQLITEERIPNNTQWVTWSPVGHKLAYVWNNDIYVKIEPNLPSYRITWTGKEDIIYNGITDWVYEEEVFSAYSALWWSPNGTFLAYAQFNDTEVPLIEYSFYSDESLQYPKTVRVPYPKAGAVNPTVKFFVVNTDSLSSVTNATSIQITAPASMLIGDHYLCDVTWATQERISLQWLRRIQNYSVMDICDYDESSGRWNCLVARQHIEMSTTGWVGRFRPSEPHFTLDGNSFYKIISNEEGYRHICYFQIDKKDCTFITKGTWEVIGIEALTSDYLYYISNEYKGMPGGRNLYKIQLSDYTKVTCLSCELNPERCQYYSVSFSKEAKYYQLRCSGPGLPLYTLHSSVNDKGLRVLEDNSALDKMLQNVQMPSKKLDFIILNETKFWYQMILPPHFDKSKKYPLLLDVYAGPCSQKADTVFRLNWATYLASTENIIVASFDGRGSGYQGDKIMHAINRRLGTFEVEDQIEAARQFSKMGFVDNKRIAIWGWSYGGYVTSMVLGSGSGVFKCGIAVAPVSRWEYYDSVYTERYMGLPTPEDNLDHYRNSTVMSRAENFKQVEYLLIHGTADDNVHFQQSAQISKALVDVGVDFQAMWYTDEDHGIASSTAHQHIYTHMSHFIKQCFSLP
T3 sequence (P28843 37-760 limits assumed): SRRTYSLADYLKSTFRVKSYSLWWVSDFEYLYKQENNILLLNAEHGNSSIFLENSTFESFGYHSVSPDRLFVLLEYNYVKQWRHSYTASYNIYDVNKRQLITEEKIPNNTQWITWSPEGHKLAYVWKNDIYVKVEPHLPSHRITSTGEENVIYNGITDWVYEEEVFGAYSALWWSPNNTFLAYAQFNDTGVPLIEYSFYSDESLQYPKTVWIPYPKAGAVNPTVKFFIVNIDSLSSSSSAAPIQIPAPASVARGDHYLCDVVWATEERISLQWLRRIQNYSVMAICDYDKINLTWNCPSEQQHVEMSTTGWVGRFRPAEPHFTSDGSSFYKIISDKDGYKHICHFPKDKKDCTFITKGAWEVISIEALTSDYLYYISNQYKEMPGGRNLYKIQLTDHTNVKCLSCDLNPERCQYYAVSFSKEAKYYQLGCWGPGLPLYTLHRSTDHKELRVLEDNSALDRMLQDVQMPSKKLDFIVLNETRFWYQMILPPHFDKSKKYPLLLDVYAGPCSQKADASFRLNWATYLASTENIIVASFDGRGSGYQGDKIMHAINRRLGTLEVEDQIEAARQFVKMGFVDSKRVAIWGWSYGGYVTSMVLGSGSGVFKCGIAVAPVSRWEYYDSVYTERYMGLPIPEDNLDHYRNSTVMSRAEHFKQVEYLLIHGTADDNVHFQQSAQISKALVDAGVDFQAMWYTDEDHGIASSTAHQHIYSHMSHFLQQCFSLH
T2 sequence (P14740 37-767 limits assumed): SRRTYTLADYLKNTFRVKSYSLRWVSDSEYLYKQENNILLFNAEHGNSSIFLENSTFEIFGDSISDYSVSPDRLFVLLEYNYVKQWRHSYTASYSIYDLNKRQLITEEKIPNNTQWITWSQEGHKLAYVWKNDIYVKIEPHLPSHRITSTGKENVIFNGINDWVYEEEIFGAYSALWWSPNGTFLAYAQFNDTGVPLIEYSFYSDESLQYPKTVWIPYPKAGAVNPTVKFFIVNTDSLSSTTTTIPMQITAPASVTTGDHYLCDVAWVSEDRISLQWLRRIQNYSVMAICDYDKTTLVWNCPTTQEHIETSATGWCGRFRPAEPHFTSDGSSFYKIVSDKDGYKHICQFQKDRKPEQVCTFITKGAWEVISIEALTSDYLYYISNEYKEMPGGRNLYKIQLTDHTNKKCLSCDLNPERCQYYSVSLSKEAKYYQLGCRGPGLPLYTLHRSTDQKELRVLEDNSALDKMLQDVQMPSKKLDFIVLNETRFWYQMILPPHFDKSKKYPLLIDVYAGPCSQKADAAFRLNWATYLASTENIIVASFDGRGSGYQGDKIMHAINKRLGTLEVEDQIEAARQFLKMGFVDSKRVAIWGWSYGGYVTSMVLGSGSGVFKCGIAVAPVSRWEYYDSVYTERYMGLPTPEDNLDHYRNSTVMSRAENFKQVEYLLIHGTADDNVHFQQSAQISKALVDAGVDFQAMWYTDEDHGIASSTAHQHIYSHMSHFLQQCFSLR

Structure (SMILES): NCCCC[C@H](N)C(=O)N1CCC[C@H]1B(O)O [Lys-boroPro]
Persistence / reversibility of DPP-IV inhibition [1]: more rapidly reversible | MTD (maximum tolerated dose) (Lewis rats; [5]): ≧2,000 μg/kg

Persistence / reversibility of DPP-IV inhibition [1]: more rapidly reversible
Structure (SMILES): N[C@@H](Cc1ccccc1)C(=O)N1CCC[C@H]1B(O)O [Phe-boroPro]

Structure (SMILES): NC(=O)CC[C@H](N)C(=O)N1CCC[C@H]1B(O)O [Gln-boroPro]
MTD (maximum tolerated dose) (Lewis rats; [5]): ≧800 μg/kg

Structure (SMILES): CC[C@H](C)[C@H](N)C(=O)N1CCC[C@H]1B(O)O [Ile-boroPro]
Persistence / reversibility of DPP-IV inhibition [1]: sustained DPP-IV inhibition | Stimulation of G-CSF levels in culture supernatants (stimulation index) [2]: stimulate increased levels of G-CSF | Effect on serum levels of KC/CXCL1 (serum KC/CXCL1): stimulate increased serum levels of KC/CXCL1 in a dose-dependent manner | MTD (maximum tolerated dose) (Lewis rats; [5]): 120 µg/kg

Structure (SMILES): CC(C)C[C@H](N)C(=O)N1CCC[C@H]1B(O)O [Leu-boroPro]
Persistence / reversibility of DPP-IV inhibition [1]: more rapidly reversible | Stimulation of G-CSF levels in culture supernatants (stimulation index) [2]: stimulate increased levels of G-CSF | Effect on serum levels of KC/CXCL1 (serum KC/CXCL1): stimulate increased serum levels of KC/CXCL1 in a dose-dependent manner | MTD (maximum tolerated dose) (Lewis rats; [5]): 200 µg/kg

Structure (SMILES): CSCC[C@H](N)C(=O)N1CCC[C@H]1B(O)O [Met-boroPro]
MTD (maximum tolerated dose) (Lewis rats; [5]): 160 µg/kg

Structure (SMILES): CC(C)[C@H](N)C(=O)N1CCC[C@H]1B(O)O [Val-boroPro]
Effect on serum levels of KC/CXCL1 (serum KC/CXCL1): stimulate increased serum levels of KC/CXCL1 in a dose-dependent manner | MTD (maximum tolerated dose) (Lewis rats; [5]): 20 µg/kg | ID50 (dose causing a 50% reduction in serum DPP-IV activity from baseline) (serum DPP-IV [3]): 0.009 mg/kg

Structure (SMILES): C[C@@H](O)[C@H](N)C(=O)N1CCC[C@H]1B(O)O [Thr-boroPro]
MTD (maximum tolerated dose) (Lewis rats; [5]): 800 µg/kg

Structure (SMILES): O=C(C1CCCN1)N1CCCC1B(O)O (stereo not drawn) [Pro-boroPro]
Persistence / reversibility of DPP-IV inhibition [1]: more rapidly reversible | MTD (maximum tolerated dose) (Lewis rats; [5]): ≧2,000 μg/kg

Structure (SMILES): N[C@@H](CCC(=O)O)C(=O)N1CCC[C@H]1B(O)O [Glu-boroPro]
Persistence / reversibility of DPP-IV inhibition [1]: sustained DPP-IV inhibition | Inhibition of serum DPP-IV activity (serum DPP-IV [4]; 20 and 200 μg doses per mouse, oral): maximally inhibited serum DPP-IV activity | ID50 (dose required to reduce serum DPP-IV activity by 50% of baseline) (serum DPP-IV [4]; BALB/c mice, single oral dose): 1 μg/mouse | Effect on serum levels of KC/CXCL1 (serum KC/CXCL1): failed to affect serum levels of KC/CXCL1 at any of the doses tested | MTD (maximum tolerated dose) (Lewis rats; Lewis, rat, in vivo, 5 days): 15,000 μg/kg | Glucose excursion post oral glucose challenge (ob/ob mice; 1.0 μmol/kg oral, 15 minutes prior to glucose 1 g/kg): reduced | Anti-glycemic effect (area under the blood glucose curve) (ob/ob mice; single 1.0 μmol/kg dose, ANOVA): significant (P=0.0010) | Blood plasma level of GLP-1 following oral glucose challenge (Zucker fa/fa rats): increased | Blood plasma level of insulin following oral glucose challenge (Zucker fa/fa rats): increased | Blood glucose excursion after oral glucose challenge (Zucker fa/fa rats; glucose 2 g/kg): reduced

Structure (SMILES): N[C@@H](CO)C(=O)N1CCC[C@H]1B(O)O [Ser-boroPro]
MTD (maximum tolerated dose) (Lewis rats; [5]): 4,000 μg/kg

Structure (SMILES): C[C@H](N)C(=O)N1CCC[C@H]1B(O)O [Ala-boroPro]
MTD (maximum tolerated dose) (Lewis rats; [5]): ≧2,000 μg/kg

Structure (SMILES): NC(N)=NCCC[C@H](N)C(=O)N1CCC[C@H]1B(O)O [Arg-boroPro]
Persistence / reversibility of DPP-IV inhibition [1]: more rapidly reversible | MTD (maximum tolerated dose) (Lewis rats; [5]): ≧2,000 μg/kg
